Experimental data as given in ChEMBL document CHEMBL2029247, “Synthesis and structure-activity relationship of aminopyridines with substituted benzoxazoles as c-Met kinase inhibitors” (Bioorg Med Chem Lett, 2012).

Columns and labels:
[1] = target: Hepatocyte growth factor receptor (Homo sapiens, UniProt P08581); experiment: Inhibition of recombinant c-Met by time resolved-fluorescence resonance energy transfer analysis
cells = conditions: Homo sapiens, Hs746T, 72 h
Description: Cytotoxicity against human Hs 746T cells after 72 hrs by WST-8 assay

[2] = target: Macrophage-stimulating protein receptor (Homo sapiens, UniProt Q04912); experiment: Inhibition of Ron
Aurora kinase A = target: T1, Aurora kinase A (Homo sapiens, UniProt O14965); experiment: Inhibition of Aurora A
T1 sequence (O14965 whole entry): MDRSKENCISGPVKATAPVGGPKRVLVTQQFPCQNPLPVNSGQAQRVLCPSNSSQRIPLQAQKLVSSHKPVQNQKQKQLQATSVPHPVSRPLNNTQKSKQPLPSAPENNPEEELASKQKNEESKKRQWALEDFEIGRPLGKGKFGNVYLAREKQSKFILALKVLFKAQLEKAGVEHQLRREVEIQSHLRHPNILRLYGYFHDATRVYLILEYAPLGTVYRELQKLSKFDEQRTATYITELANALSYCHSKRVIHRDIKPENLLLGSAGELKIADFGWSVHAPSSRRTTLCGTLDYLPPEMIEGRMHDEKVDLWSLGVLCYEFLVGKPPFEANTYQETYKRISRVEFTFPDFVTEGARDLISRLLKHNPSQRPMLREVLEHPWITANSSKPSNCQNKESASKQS

[3] = target: T2, Receptor-type tyrosine-protein kinase FLT3 (Homo sapiens, UniProt P36888); experiment: Inhibition of recombinant FLT3 by time resolved-fluorescence resonance energy transfer analysis
T2 sequence (P36888 whole entry): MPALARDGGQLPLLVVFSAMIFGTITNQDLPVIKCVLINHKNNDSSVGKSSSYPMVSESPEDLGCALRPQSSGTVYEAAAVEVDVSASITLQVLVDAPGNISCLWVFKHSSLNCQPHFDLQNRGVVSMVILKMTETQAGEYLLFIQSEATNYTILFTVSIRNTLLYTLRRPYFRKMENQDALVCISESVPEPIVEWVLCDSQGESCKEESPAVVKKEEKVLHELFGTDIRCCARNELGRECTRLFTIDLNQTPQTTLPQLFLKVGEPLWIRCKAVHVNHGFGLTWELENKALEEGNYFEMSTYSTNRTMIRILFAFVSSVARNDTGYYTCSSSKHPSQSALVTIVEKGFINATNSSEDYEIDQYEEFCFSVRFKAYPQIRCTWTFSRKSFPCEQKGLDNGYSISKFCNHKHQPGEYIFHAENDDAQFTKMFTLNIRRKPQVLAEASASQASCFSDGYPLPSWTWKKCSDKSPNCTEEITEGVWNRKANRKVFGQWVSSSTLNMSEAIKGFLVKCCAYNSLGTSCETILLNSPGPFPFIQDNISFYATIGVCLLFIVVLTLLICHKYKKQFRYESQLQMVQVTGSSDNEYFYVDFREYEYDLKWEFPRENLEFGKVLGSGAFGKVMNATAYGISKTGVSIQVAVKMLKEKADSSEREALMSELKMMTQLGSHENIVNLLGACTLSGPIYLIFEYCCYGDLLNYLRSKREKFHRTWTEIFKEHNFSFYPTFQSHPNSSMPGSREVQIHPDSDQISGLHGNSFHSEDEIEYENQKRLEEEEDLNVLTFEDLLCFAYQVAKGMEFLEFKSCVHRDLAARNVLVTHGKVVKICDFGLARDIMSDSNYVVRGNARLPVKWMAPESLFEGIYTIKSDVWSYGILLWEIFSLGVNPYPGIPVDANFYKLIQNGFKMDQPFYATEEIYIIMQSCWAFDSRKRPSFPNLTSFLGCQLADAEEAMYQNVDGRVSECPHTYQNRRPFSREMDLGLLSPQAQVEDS

[4] = target: Receptor-type tyrosine-protein kinase FLT3 (Homo sapiens, UniProt P36888, D835Y); experiment: Inhibition of FLT3 D835Y mutant

SMILES	IC50 [1] [µM]	other results
Nc1ncc(-c2cnn(C3CCNCC3)c2)cc1-c1nc2cc(Cl)cc(F)c2o1	0.041	–
Nc1ncc(-c2cnn(C3CCNCC3)c2)cc1-c1nc2ccc(-c3cccnc3)cc2o1	0.028	–
Nc1ncc(-c2cnn(C3CCNCC3)c2)cc1-c1nc2cccc(-c3ccccn3)c2o1	–	IC50 (cells): 0.24 µM
COc1ccc(-c2cccc3nc(-c4cc(-c5cnn(C6CCNCC6)c5)cnc4N)oc23)cc1	0.077	–
CNc1ccc2oc(-c3cc(-c4cnn(C5CCNCC5)c4)cnc3N)nc2c1	0.16	–
Nc1ncc(-c2cnn(C3CCNCC3)c2)cc1-c1nc2ccc(Nc3ncccn3)cc2o1	0.063	–
Nc1ncc(-c2cnn(C3CCNCC3)c2)cc1-c1nc2ccc(Oc3ncccn3)cc2o1	0.023	–
Nc1ncc(-c2cnn(C3CCNCC3)c2)cc1-c1nc2cc(O)ccc2o1	0.022	–
Cc1cc2oc(-c3cc(-c4cnn(C5CCNCC5)c4)cnc3N)nc2cc1O	–	IC50 (cells): 0.012 µM
Cc1cc2oc(-c3cc(-c4cnn(C5CCNCC5)c4)cnc3N)nc2c(C)c1O	0.003	–
CCc1cc2oc(-c3cc(-c4cnn(C5CCNCC5)c4)cnc3N)nc2cc1O	–	IC50 (cells): 0.022 µM
Cc1c(O)ccc2nc(-c3cc(-c4cnn(C5CCNCC5)c4)cnc3N)oc12	0.0002	IC50 (cells): 0.035 µM; IC50 [3]: 0.034 µM
Nc1ncc(-c2cnn(C3CCNCC3)c2)cc1-c1nc2ccc(O)c(-c3cccnc3)c2o1	0.004	–
Nc1ncc(-c2cnn(C3CCNCC3)c2)cc1-c1nc2ccc(O)c(-c3cnccn3)c2o1	–	IC50 (cells): 0.18 µM
Nc1ncc(-c2cnn(C3CCNCC3)c2)cc1-c1nc2ccc(O)c(-c3ccccc3)c2o1	0.048	IC50 (cells): 0.01 µM; IC50 [3]: 0.014 µM
Nc1ccc2nc(-c3cc(-c4cnn(C5CCNCC5)c4)cnc3N)oc2c1	0.014	IC50 (cells): 3.7 µM; IC50 [3]: 0.0036 µM
Nc1ncc(-c2cnn(C3CCNCC3)c2)cc1-c1nc2ccc(NC(=O)Nc3ccccc3)cc2o1	0.13	–
Cc1ccc(S(=O)(=O)NC(=O)Nc2ccc3nc(-c4cc(-c5cnn(C6CCNCC6)c5)cnc4N)oc3c2)cc1	0.045	–
CC(=O)N1CCC(n2cc(-c3cnc(N)c(-c4nc5c(C)c(O)c(C)cc5o4)c3)cn2)CC1	0.028	–
Cn1cc(-c2cnc(N)c(-c3nc4cccc(-c5ccccn5)c4o3)c2)cn1	0.014	–

More lines, main results first:

IC50 [1] [µM]	SMILES	other results
0.053	Nc1ncc(-c2cnn(C3CCNCC3)c2)cc1-c1nc2cc(Cl)ccc2o1	–
0.8	CC(=O)c1ccc2nc(-c3cc(-c4cnn(C5CCNCC5)c4)cnc3N)oc2c1	–
0.13	CC(O)c1ccc2nc(-c3cc(-c4cnn(C5CCNCC5)c4)cnc3N)oc2c1 (stereo not drawn)	–
0.21	Nc1ncc(-c2cnn(C3CCNCC3)c2)cc1-c1nc2ccc(-c3cc[nH]n3)cc2o1	–
0.13	CC(C)Nc1cccc2nc(-c3cc(-c4cnn(C5CCNCC5)c4)cnc3N)oc12	–
0.54	CC(=O)Nc1ccc2oc(-c3cc(-c4cnn(C5CCNCC5)c4)cnc3N)nc2c1 [listing 1 of 2 here]	–
0.15	CCCNc1ccc2nc(-c3cc(-c4cnn(C5CCNCC5)c4)cnc3N)oc2c1	–
0.034	Nc1ncc(-c2cnn(C3CCNCC3)c2)cc1-c1nc2ccc(Oc3ccncn3)cc2o1	–
0.019	Nc1ncc(-c2cnn(C3CCNCC3)c2)cc1-c1nc2ccc(O)cc2o1	IC50 [2]: 0.014 µM; IC50 (Aurora kinase A): 0.09 µM; IC50 (cells): 0.45 µM; IC50 [3]: 0.004 µM; IC50 [4]: 0.0003 µM
0.11	Nc1ncc(-c2cnn(C3CCNCC3)c2)cc1-c1nc2cccc(O)c2o1	–
0.18	Cc1cc2nc(-c3cc(-c4cnn(C5CCNCC5)c4)cnc3N)oc2cc1O	–
0.056	Nc1ccc2oc(-c3cc(-c4cnn(C5CCNCC5)c4)cnc3N)nc2c1	–
0.088	CS(=O)(=O)Nc1ccc2nc(-c3cc(-c4cnn(C5CCNCC5)c4)cnc3N)oc2c1	–
0.067	Nc1ncc(-c2cnn(C3CCNCC3)c2)cc1-c1nc2ccc(NS(=O)(=O)c3ccc(F)cc3)cc2o1	–
0.41	Nc1ncc(-c2cnn(C3CCNCC3)c2)cc1-c1nc2ccc(Nc3ccc(F)cc3)cc2o1	–
1.7	Cn1cc(-c2cnc(N)c(-c3nc4ccc(Cl)cc4o3)c2)cn1	–
0.24	CN1CCC(n2cc(-c3cnc(N)c(-c4nc5ccc(F)cc5o4)c3)cn2)CC1	–
0.09	Nc1ncc(-c2cnn(C3CCN(CCO)CC3)c2)cc1-c1nc2ccc(F)cc2o1	–
0.22	CC(=O)N1CCC(n2cc(-c3cnc(N)c(-c4nc5ccc(Cl)cc5o4)c3)cn2)CC1	–
0.051	CC(=O)N1CCC(n2cc(-c3cnc(N)c(-c4nc5cc(O)c(C)cc5o4)c3)cn2)CC1	–
0.053	Nc1ncc(-c2cnn(CCO)c2)cc1-c1nc2cccc(-c3ccccn3)c2o1	–
0.54	CC(=O)Nc1ccc2oc(-c3cc(-c4cnn(C5CCNCC5)c4)cnc3N)nc2c1 [listing 2 of 2 here]	–
